How the values were obtained:
Trypsin = biological target: T1, Trypsin (Bos taurus, UniProt P00760); test: Anti-trypsin activity (inhibition of TAME hydrolysis); type: biochemical; conditions: read-out: ID50, Trypsin
T1 sequence (P00760 24-246): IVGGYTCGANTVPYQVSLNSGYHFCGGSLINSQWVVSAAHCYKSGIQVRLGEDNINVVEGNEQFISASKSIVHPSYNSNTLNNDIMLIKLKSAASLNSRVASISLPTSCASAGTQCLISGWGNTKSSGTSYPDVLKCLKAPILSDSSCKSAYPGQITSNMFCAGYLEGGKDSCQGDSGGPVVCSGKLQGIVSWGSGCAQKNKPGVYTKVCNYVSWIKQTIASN

Kallikrein = test: Anti-kallikrein activity (inhibition of TAME hydrolysis); type: biochemical; conditions: read-out: ID50, Kallikrein
Plasmin = Plasmin (Homo sapiens, UniProt P00747); test: Anti-plasmin activity (inhibition of TAME hydrolysis); type: biochemical; conditions: TAME hydrolysis; read-out: ID50, Plasmin
C1s = biological target: T2, C1s (Homo sapiens, UniProt P09871); test: Anti-C1s activity (inhibition of ATEE hydrolysis); type: biochemical; conditions: read-out: ID50, C1s
T2 sequence (P09871 16-437 limits assumed): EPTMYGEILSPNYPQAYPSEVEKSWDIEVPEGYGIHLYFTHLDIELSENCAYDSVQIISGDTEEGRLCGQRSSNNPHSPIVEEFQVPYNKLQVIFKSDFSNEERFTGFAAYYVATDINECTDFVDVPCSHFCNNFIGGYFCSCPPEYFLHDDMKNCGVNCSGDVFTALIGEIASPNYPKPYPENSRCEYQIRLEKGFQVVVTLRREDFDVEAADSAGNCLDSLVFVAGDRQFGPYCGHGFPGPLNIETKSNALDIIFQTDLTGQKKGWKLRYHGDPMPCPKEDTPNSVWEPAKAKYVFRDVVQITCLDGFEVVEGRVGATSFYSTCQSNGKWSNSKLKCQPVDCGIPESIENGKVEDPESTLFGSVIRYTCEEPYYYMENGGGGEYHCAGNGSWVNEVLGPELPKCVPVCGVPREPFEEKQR
T2 sequence (P09871 438-688 limits assumed): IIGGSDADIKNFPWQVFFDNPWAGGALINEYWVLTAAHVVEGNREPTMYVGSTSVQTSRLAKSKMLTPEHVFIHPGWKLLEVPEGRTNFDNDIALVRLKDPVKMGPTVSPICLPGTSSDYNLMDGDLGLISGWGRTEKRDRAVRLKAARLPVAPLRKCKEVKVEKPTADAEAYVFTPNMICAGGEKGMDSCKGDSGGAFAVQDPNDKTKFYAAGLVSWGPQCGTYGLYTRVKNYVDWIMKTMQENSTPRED
Experimental: (§1) The anti-C1 esterase (C1r, C1s) activity was determined according to the method of Okamura et al. [K. Okamura, M. Muramatsu and B. Fujii, Biochem. Biophys. Acta, 295, 252-257 (1973)]. (2) The inhibition of complement mediated hemolysis was determined according to the method of Baker et al. [B. R. Baker and E. H. Erickson, J. Med. Chem., 12, 408-414 (1969)]. The figures in Table 2 have the following meanings:
C1s: Molar concentration of the test compound which inhibits 50% of the ability of C1s to hydrolyse ATEE (acetyltyrosin ethyl ester) (ID50).

C1r = biological target: T3, C1r (Homo sapiens, UniProt P00736); test: Anti-C1r activity (inhibition of AAME hydrolysis); type: biochemical; conditions: for inhibition at 10 µM: at 1×10^-5 M, read-out: percent inhibition, C1r (figure in parentheses); for IC50: AAME hydrolysis, read-out: ID50, C1r
T3 sequence (P00736 18-463 limits assumed): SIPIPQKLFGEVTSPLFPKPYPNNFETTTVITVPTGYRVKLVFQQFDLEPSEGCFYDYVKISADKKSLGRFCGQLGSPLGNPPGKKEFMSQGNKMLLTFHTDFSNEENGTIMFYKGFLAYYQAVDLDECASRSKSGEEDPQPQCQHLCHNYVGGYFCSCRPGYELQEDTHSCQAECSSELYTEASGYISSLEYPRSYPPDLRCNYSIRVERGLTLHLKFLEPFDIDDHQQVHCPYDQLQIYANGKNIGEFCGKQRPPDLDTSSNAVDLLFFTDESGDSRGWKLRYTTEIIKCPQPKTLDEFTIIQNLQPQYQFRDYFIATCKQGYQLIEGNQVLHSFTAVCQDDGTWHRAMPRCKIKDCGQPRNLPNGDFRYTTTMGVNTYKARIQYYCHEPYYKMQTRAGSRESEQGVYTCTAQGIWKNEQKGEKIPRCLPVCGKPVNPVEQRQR
T3 sequence (P00736 464-705 limits assumed): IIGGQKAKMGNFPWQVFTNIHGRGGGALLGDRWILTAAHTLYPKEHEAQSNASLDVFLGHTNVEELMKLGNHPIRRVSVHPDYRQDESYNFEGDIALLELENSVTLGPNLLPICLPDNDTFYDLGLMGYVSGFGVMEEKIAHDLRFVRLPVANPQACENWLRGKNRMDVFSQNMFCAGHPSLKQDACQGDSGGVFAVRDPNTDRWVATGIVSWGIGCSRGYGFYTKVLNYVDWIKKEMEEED
Experimental: as §1, with “meanings: C1r: […]” for “meanings:”

[1] = tested on: complement mediated hemolysis; test: Inhibition of complement mediated hemolysis; type: cell-based
Description: Therefore, when a known amount of complement admixed with a C1 esterase inhibitor is used, the hemolysis must be suppressed in proportion to the inhibitory activity.

Thrombin = Thrombin (Homo sapiens, UniProt P00734); test: biochemical; conditions: for IC50: TAME hydrolysis, read-out: ID50, Thrombin

Chain of Plasmin (P00747 97-580 limits assumed, species assumed): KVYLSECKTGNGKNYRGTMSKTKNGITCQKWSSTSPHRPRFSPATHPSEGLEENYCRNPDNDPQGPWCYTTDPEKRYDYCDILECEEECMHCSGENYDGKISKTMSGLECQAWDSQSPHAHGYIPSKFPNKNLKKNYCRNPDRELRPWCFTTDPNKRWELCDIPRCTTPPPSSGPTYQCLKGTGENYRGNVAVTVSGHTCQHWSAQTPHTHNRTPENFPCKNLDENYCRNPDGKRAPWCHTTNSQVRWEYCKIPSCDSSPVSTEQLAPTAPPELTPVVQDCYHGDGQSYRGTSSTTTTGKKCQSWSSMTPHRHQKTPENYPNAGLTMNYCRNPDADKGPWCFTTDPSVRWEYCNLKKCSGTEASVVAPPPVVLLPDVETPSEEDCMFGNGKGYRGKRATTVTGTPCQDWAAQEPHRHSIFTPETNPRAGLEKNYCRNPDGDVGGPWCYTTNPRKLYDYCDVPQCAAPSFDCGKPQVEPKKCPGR
Chain of Plasmin (P00747 581-810 limits assumed, species assumed): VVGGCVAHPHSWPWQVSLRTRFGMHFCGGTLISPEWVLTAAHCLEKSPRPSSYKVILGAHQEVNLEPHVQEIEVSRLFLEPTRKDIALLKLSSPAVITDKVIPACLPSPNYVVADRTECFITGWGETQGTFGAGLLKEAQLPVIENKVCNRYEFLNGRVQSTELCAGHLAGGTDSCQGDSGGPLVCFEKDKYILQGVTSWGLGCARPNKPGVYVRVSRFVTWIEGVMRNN

`CN1CCNC1=Nc1ccc(C(=O)Oc2ccc3cc(C(=N)N)ccc3c2)cc1` [compound 3] gave an IC50 (Trypsin) of 0.3 µM, an IC50 (Kallikrein) of 0.6 µM and an IC50 (Plasmin) of 1 µM. The IC50 (C1s) was 0.3 µM, the inhibition at 10 µM (C1r) was 38% and the “Inhibition of complement mediated hemolysis (%)” value (“Inhibition … (%)” below) ([1]; 1 × 10^-5) was 93%. The “Inhibition … (%)” value ([1]; 1 × 10^-6) was 25%, the “Inhibition … (%)” value ([1]; 1 × 10^-7) was 0% and the IC50 (Thrombin) was 0.8 µM.

Molecule `CC1CNC(Nc2ccc(C(=O)Oc3ccc4cc(C(=N)N)ccc4c3)cc2)=N1` (stereo not shown) [compound 4] has an IC50 (Trypsin) of 3 µM, an IC50 (Kallikrein) of 0.4 µM and an IC50 (Plasmin) of 1 µM. For the same molecule, the IC50 (C1s) was 0.4 µM, the IC50 (C1r) was 10 µM and the “Inhibition … (%)” value ([1]; 1 × 10^-5) was 100%. For the same molecule, the “Inhibition … (%)” value ([1]; 1 × 10^-6) was 96%, the “Inhibition … (%)” value ([1]; 1 × 10^-7) was 48% and the IC50 (Thrombin) was 2 µM.

`N=C(N)c1ccc2cc(OC(=O)c3ccc(NC4=NCCCN4)cc3)ccc2c1` [compound 5] was tested, and the IC50 (Trypsin) was 6 µM, the IC50 (Kallikrein) was 0.5 µM and the IC50 (Plasmin) was 1 µM. For the same molecule, the IC50 (C1s) was 0.3 µM, the inhibition at 10 µM (C1r) was 41% and the “Inhibition … (%)” value ([1]; 1 × 10^-5) was 98%. The “Inhibition … (%)” value ([1]; 1 × 10^-6) was 83%, the “Inhibition … (%)” value ([1]; 1 × 10^-7) was 5% and the IC50 (Thrombin) was 2 µM.

`N=C(N)c1ccc2cc(OC(=O)c3ccc(NC4=NC5CCCCC5N4)cc3)ccc2c1` (stereo not shown) [compound 6] gave an IC50 (Trypsin) of 2 µM, an IC50 (Kallikrein) of 0.9 µM and an IC50 (Plasmin) of 3 µM. The IC50 (C1s) was 0.4 µM, the IC50 (C1r) was 9 µM and the “Inhibition … (%)” value ([1]; 1 × 10^-5) was 100%. For the same molecule, the “Inhibition … (%)” value ([1]; 1 × 10^-6) was 100%, the “Inhibition … (%)” value ([1]; 1 × 10^-7) was 75% and the IC50 (Thrombin) was 2 µM.

With `N=C(N)c1ccc2cc(OC(=O)c3ccc(Nc4ncc[nH]4)cc3)ccc2c1` [compound 7] the IC50 (Trypsin) was 0.6 µM, the IC50 (Kallikrein) was 4 µM and the IC50 (Plasmin) was 5 µM. The IC50 (C1s) was 0.3 µM, the IC50 (C1r) was 3 µM and the “Inhibition … (%)” value ([1]; 1 × 10^-5) was 96%. The “Inhibition … (%)” value ([1]; 1 × 10^-6) was 46%, the “Inhibition … (%)” value ([1]; 1 × 10^-7) was 4% and the IC50 (Thrombin) was 6 µM.

`CNC(=N)Nc1ccc(C(=O)Oc2ccc3cc(C(=N)N)ccc3c2)cc1` [compound 8] was tested, and the IC50 (Trypsin) was 4 µM, the IC50 (Kallikrein) was 3 µM and the IC50 (Plasmin) was 3 µM. For the same molecule, the IC50 (C1s) was 2 µM, the inhibition at 10 µM (C1r) was 47% and the “Inhibition … (%)” value ([1]; 1 × 10^-5) was 100%. For the same molecule, the “Inhibition … (%)” value ([1]; 1 × 10^-6) was 93%, the “Inhibition … (%)” value ([1]; 1 × 10^-7) was 34% and the IC50 (Thrombin) was 0.06 µM.

In the case of `CN(C)C(=N)Nc1ccc(C(=O)Oc2ccc3cc(C(=N)N)ccc3c2)cc1` [compound 9], the IC50 (Trypsin) is reported as 6 µM, the IC50 (Kallikrein) is reported as 0.9 µM and the IC50 (Plasmin) is reported as 2 µM. The IC50 (C1s) was 0.4 µM, the inhibition at 10 µM (C1r) was 41% and the “Inhibition … (%)” value ([1]; 1 × 10^-5) was 100%. The “Inhibition … (%)” value ([1]; 1 × 10^-6) was 68%, the “Inhibition … (%)” value ([1]; 1 × 10^-7) was 8% and the IC50 (Thrombin) was 0.6 µM.

`CCNC(=N)Nc1ccc(C(=O)Oc2ccc3cc(C(=N)N)ccc3c2)cc1` [compound 10] was tested, and the IC50 (Trypsin) was 2 µM, the IC50 (Kallikrein) was 0.4 µM and the IC50 (Plasmin) was 5 µM. For the same molecule, the IC50 (C1s) was 0.8 µM, the inhibition at 10 µM (C1r) was 48% and the “Inhibition … (%)” value ([1]; 1 × 10^-5) was 100%. For the same molecule, the “Inhibition … (%)” value ([1]; 1 × 10^-6) was 86%, the “Inhibition … (%)” value ([1]; 1 × 10^-7) was 20% and the IC50 (Thrombin) was 6 µM.

`CCNC(=NC)Nc1ccc(C(=O)Oc2ccc3cc(C(=N)N)ccc3c2)cc1` [compound 11] was tested, and the IC50 (C1s) was 0.2 µM, the inhibition at 10 µM (C1r) was 24% and the “Inhibition … (%)” value ([1]; 1 × 10^-5) was 100%. For the same molecule, the “Inhibition … (%)” value ([1]; 1 × 10^-6) was 57% and the “Inhibition … (%)” value ([1]; 1 × 10^-7) was 0%.

In the case of `CCN=C(NCC)Nc1ccc(C(=O)Oc2ccc3cc(C(=N)N)ccc3c2)cc1` [compound 12], the IC50 (C1s) is reported as 0.08 µM, the inhibition at 10 µM (C1r) is reported as 24% and the “Inhibition … (%)” value ([1]; 1 × 10^-5) is reported as 100%. The “Inhibition … (%)” value ([1]; 1 × 10^-6) was 59% and the “Inhibition … (%)” value ([1]; 1 × 10^-7) was 0%.

Work on `CCCCNC(=N)Nc1ccc(C(=O)Oc2ccc3cc(C(=N)N)ccc3c2)cc1` [compound 13] yielded an IC50 (Trypsin) of 2 µM, an IC50 (Kallikrein) of 0.9 µM and an IC50 (Plasmin) of 0.5 µM. The IC50 (C1s) was 0.5 µM, the inhibition at 10 µM (C1r) was 46% and the “Inhibition … (%)” value ([1]; 1 × 10^-5) was 100%. The “Inhibition … (%)” value ([1]; 1 × 10^-6) was 78%, the “Inhibition … (%)” value ([1]; 1 × 10^-7) was 3% and the IC50 (Thrombin) was 1 µM.

`N=C(NCCO)Nc1ccc(C(=O)Oc2ccc3cc(C(=N)N)ccc3c2)cc1` [compound 15] gave an IC50 (Trypsin) of 2 µM, an IC50 (Kallikrein) of 1 µM and an IC50 (Plasmin) of 2 µM. For the same molecule, the IC50 (C1s) was 0.9 µM, the IC50 (C1r) was 5 µM and the “Inhibition … (%)” value ([1]; 1 × 10^-5) was 96%. For the same molecule, the “Inhibition … (%)” value ([1]; 1 × 10^-6) was 52%, the “Inhibition … (%)” value ([1]; 1 × 10^-7) was 6% and the IC50 (Thrombin) was 1 µM.

For `CC(=O)NCCNC(=N)Nc1ccc(C(=O)Oc2ccc3cc(C(=N)N)ccc3c2)cc1` [compound 16], the IC50 (Trypsin) was 4 µM, the IC50 (Kallikrein) was 3 µM and the IC50 (Plasmin) was 0.9 µM. The IC50 (C1s) was 3 µM, the inhibition at 10 µM (C1r) was 35% and the “Inhibition … (%)” value ([1]; 1 × 10^-5) was 100%. For the same molecule, the “Inhibition … (%)” value ([1]; 1 × 10^-6) was 89%, the “Inhibition … (%)” value ([1]; 1 × 10^-7) was 25% and the inhibition at 10 µM (Thrombin; at 1×10^-5 M, read-out: percentage inhibition, Thrombin (figure in parentheses)) was 49%.

Molecule `N=C(NCCOCc1ccccc1)Nc1ccc(C(=O)Oc2ccc3cc(C(=N)N)ccc3c2)cc1` [compound 18] has an IC50 (Trypsin) of 2 µM, an IC50 (Kallikrein) of 2 µM and an IC50 (Plasmin) of 0.6 µM. For the same molecule, the IC50 (C1s) was 2 µM, the inhibition at 10 µM (C1r) was 37% and the “Inhibition … (%)” value ([1]; 1 × 10^-5) was 100%. For the same molecule, the “Inhibition … (%)” value ([1]; 1 × 10^-6) was 100%, the “Inhibition … (%)” value ([1]; 1 × 10^-7) was 46% and the IC50 (Thrombin) was 5 µM.
